According to the NIST ThermoML archive (doi:10.1016/j.jct.2005.11.012):

Legend:
[1] = 101 kPa, Liquid
[2] = refractive index (Na D-line) (dimensionless); details: 101.33 kPa, Liquid
[3] = xn = mol fraction of the nth substance listed; details: 101 kPa, Liquid
[4] = refractive index (Na D-line) (dimensionless); xn = mol fraction of the nth substance listed; details: 101 kPa, Liquid

BrC(Br)C(Br)Br [1,1,2,2-tetrabromoethane]
Details | mass density, [1] [kg/m3] | refractive index, [2]
293.15 K | 2963.2 | 1.63535
303.15 K | 2939.86 | 1.62926

BrC(Br)C(Br)Br [1,1,2,2-tetrabromoethane] + CCCCCCCCCCO
Details | mass density, [3] [kg/m3] | refractive index, [4]
293.15 K, x1 = 0.1023 | 968.19 | 1.44929
293.15 K, x1 = 0.202 | 1114.37 | 1.46226
293.15 K, x1 = 0.3012 | 1272.36 | 1.47639
293.15 K, x1 = 0.4012 | 1446.62 | 1.49207
293.15 K, x1 = 0.5007 | 1636.66 | 1.50944
293.15 K, x1 = 0.6006 | 1847.04 | 1.52888
293.15 K, x1 = 0.7011 | 2081.74 | 1.55057
293.15 K, x1 = 0.8006 | 2340.68 | 1.57518
293.15 K, x1 = 0.9006 | 2632.79 | 1.60321
293.15 K, x1 = 1 | 2963.2 | 1.63535
303.15 K, x1 = 0.1023 | 960.09 | 1.44494
303.15 K, x1 = 0.202 | 1104.97 | 1.45758
303.15 K, x1 = 0.3012 | 1261.57 | 1.47147
303.15 K, x1 = 0.4012 | 1434.34 | 1.48697
303.15 K, x1 = 0.5007 | 1622.78 | 1.50399
303.15 K, x1 = 0.6006 | 1831.45 | 1.52315
303.15 K, x1 = 0.7011 | 2064.32 | 1.54493
303.15 K, x1 = 0.8006 | 2321.36 | 1.56925
303.15 K, x1 = 0.9006 | 2611.47 | 1.59716
303.15 K, x1 = 1 | 2939.86 | 1.62926

BrC(Br)C(Br)Br [1,1,2,2-tetrabromoethane] + CCCCCCCCO
Details | mass density, [3] [kg/m3] | refractive index, [4]
293.15 K, x1 = 0.101 | 989.26 | 1.44433
293.15 K, x1 = 0.2013 | 1161.15 | 1.45995
293.15 K, x1 = 0.2997 | 1338.99 | 1.47641
293.15 K, x1 = 0.3994 | 1529.17 | 1.49411
293.15 K, x1 = 0.5002 | 1732.98 | 1.51358
293.15 K, x1 = 0.6003 | 1947.95 | 1.53421
293.15 K, x1 = 0.6998 | 2175.4 | 1.55634
293.15 K, x1 = 0.7998 | 2419.28 | 1.58047
293.15 K, x1 = 0.9011 | 2684.42 | 1.60696
293.15 K, x1 = 1 | 2963.2 | 1.63535
303.15 K, x1 = 0.101 | 980.93 | 1.44015
303.15 K, x1 = 0.2013 | 1151.32 | 1.45566
303.15 K, x1 = 0.2997 | 1327.63 | 1.4717
303.15 K, x1 = 0.3994 | 1516.19 | 1.48929
303.15 K, x1 = 0.5002 | 1718.29 | 1.50826
303.15 K, x1 = 0.6003 | 1931.52 | 1.52869
303.15 K, x1 = 0.6998 | 2157.22 | 1.55075
303.15 K, x1 = 0.7998 | 2399.36 | 1.57464
303.15 K, x1 = 0.9011 | 2662.77 | 1.60101
303.15 K, x1 = 1 | 2939.86 | 1.62926

BrC(Br)C(Br)Br [1,1,2,2-tetrabromoethane] + CCCCCCCO
Details | mass density, [3] [kg/m3] | refractive index, [4]
293.15 K, x1 = 0.099 | 1001.11 | 1.44056
293.15 K, x1 = 0.1999 | 1189.38 | 1.45821
293.15 K, x1 = 0.3001 | 1383.2 | 1.47658
293.15 K, x1 = 0.3995 | 1582.25 | 1.49566
293.15 K, x1 = 0.5006 | 1792.24 | 1.51595
293.15 K, x1 = 0.5987 | 2003.6 | 1.5368
293.15 K, x1 = 0.6993 | 2229.07 | 1.55935
293.15 K, x1 = 0.799 | 2461.79 | 1.58311
293.15 K, x1 = 0.8992 | 2706 | 1.60832
293.15 K, x1 = 1 | 2963.2 | 1.63535
303.15 K, x1 = 0.099 | 992.57 | 1.43619
303.15 K, x1 = 0.1999 | 1179.18 | 1.45352
303.15 K, x1 = 0.3001 | 1371.29 | 1.47156
303.15 K, x1 = 0.3995 | 1568.62 | 1.49038
303.15 K, x1 = 0.5006 | 1776.88 | 1.51053
303.15 K, x1 = 0.5987 | 1986.59 | 1.53124
303.15 K, x1 = 0.6993 | 2210.42 | 1.55368
303.15 K, x1 = 0.799 | 2441.56 | 1.57727
303.15 K, x1 = 0.8992 | 2684.21 | 1.60236
303.15 K, x1 = 1 | 2939.86 | 1.62926

BrC(Br)C(Br)Br [1,1,2,2-tetrabromoethane] + CCCCCCO
Details | mass density, [3] [kg/m3] | refractive index, [4]
293.15 K, x1 = 0.1001 | 1021.6 | 1.43743
293.15 K, x1 = 0.2007 | 1227.75 | 1.45713
293.15 K, x1 = 0.3004 | 1434.26 | 1.4771
293.15 K, x1 = 0.4004 | 1643.89 | 1.49787
293.15 K, x1 = 0.5005 | 1856.54 | 1.51914
293.15 K, x1 = 0.6008 | 2072.22 | 1.54101
293.15 K, x1 = 0.6999 | 2288.24 | 1.56327
293.15 K, x1 = 0.8012 | 2512.37 | 1.58693
293.15 K, x1 = 0.9001 | 2734.51 | 1.61052
293.15 K, x1 = 1 | 2963.2 | 1.63535
303.15 K, x1 = 0.1001 | 1012.63 | 1.43304
303.15 K, x1 = 0.2007 | 1216.94 | 1.45244
303.15 K, x1 = 0.3004 | 1421.62 | 1.47214
303.15 K, x1 = 0.4004 | 1629.48 | 1.49244
303.15 K, x1 = 0.5005 | 1840.42 | 1.51355
303.15 K, x1 = 0.6008 | 2054.51 | 1.53523
303.15 K, x1 = 0.6999 | 2269.06 | 1.55749
303.15 K, x1 = 0.8012 | 2491.76 | 1.58095
303.15 K, x1 = 0.9001 | 2712.53 | 1.60452
303.15 K, x1 = 1 | 2939.86 | 1.62926

BrC(Br)C(Br)Br [1,1,2,2-tetrabromoethane] + CCCCCO
Details | mass density, [3] [kg/m3] | refractive index, [4]
293.15 K, x1 = 0.1009 | 1048.36 | 1.43257
293.15 K, x1 = 0.2014 | 1276.63 | 1.45508
293.15 K, x1 = 0.3004 | 1497.47 | 1.47732
293.15 K, x1 = 0.4003 | 1716.5 | 1.49977
293.15 K, x1 = 0.5014 | 1934.64 | 1.52252
293.15 K, x1 = 0.6001 | 2144.16 | 1.54476
293.15 K, x1 = 0.7001 | 2353.22 | 1.56734
293.15 K, x1 = 0.7998 | 2558.61 | 1.58989
293.15 K, x1 = 0.8997 | 2761.73 | 1.61255
293.15 K, x1 = 1 | 2963.2 | 1.63535
303.15 K, x1 = 0.1009 | 1038.85 | 1.42823
303.15 K, x1 = 0.2014 | 1265.1 | 1.45052
303.15 K, x1 = 0.3004 | 1484.08 | 1.47247
303.15 K, x1 = 0.4003 | 1701.36 | 1.49475
303.15 K, x1 = 0.5014 | 1917.88 | 1.51723
303.15 K, x1 = 0.6001 | 2125.93 | 1.53938
303.15 K, x1 = 0.7001 | 2333.58 | 1.5616
303.15 K, x1 = 0.7998 | 2537.64 | 1.58403
303.15 K, x1 = 0.8997 | 2739.49 | 1.60652
303.15 K, x1 = 1 | 2939.86 | 1.62926

CCCCCCCCCCO [decan-1-ol]
Details | mass density, [1] [kg/m3] | refractive index, [2]
293.15 K | 829.7 | 1.43706
303.15 K | 822.85 | 1.43302

CCCCCCCCCCO [decan-1-ol] + BrC(Br)C(Br)Br
x2 = 0
Details | mass density, [3] [kg/m3] | refractive index, [4]
293.15 K | 829.7 | 1.43706
303.15 K | 822.85 | 1.43302

CCCCCCCO [heptan-1-ol]
Details | mass density, [1] [kg/m3] | refractive index, [2]
293.15 K | 822.39 | 1.42397
303.15 K | 815.41 | 1.42002

CCCCCCCO [heptan-1-ol] + BrC(Br)C(Br)Br
x2 = 0
Details | mass density, [3] [kg/m3] | refractive index, [4]
293.15 K | 822.39 | 1.42397
303.15 K | 815.41 | 1.42002

CCCCCCO [hexan-1-ol]
Details | mass density, [1] [kg/m3] | refractive index, [2]
293.15 K | 818.92 | 1.41826
303.15 K | 811.73 | 1.41423

CCCCCCO [hexan-1-ol] + BrC(Br)C(Br)Br
x2 = 0
Details | mass density, [3] [kg/m3] | refractive index, [4]
293.15 K | 818.92 | 1.41826
303.15 K | 811.73 | 1.41423

CCCCCCCCO [octan-1-ol]
Details | mass density, [1] [kg/m3] | refractive index, [2]
293.15 K | 824.99 | 1.42958
303.15 K | 818.09 | 1.42562

CCCCCCCCO [octan-1-ol] + BrC(Br)C(Br)Br
x2 = 0
Details | mass density, [3] [kg/m3] | refractive index, [4]
293.15 K | 824.99 | 1.42958
303.15 K | 818.09 | 1.42562

CCCCCO [pentan-1-ol]
Details | mass density, [1] [kg/m3] | refractive index, [2]
293.15 K | 815.03 | 1.40995
303.15 K | 807.6 | 1.40592

CCCCCO [pentan-1-ol] + BrC(Br)C(Br)Br
x2 = 0
Details | mass density, [3] [kg/m3] | refractive index, [4]
293.15 K | 815.03 | 1.40995
303.15 K | 807.6 | 1.40592
